Data: PMC4019466, “RNA Mimicry by the Fap7 Adenylate Kinase in Ribosome Biogenesis” (PLoS Biology, 2014)

Legend:
yFap7 [1] = target: T1, yFap7 (Saccharomyces cerevisiae, UniProt Q12055); assay: adenylate kinase assay coupled to pyruvate kinase / lactate dehydrogenase, NADH at […] nm; type: biochemical; settings: 5 mM MgCl2, pH 7.5, 30 °C; co-substrate ATP
T1 construct: gene FAP7; full-length, His-tagged, pRSF-DUET, expressed in E. coli Rosetta 2DE3; calculated monomer mass 23,916 (SAXS sample)
T1 sequence (Q12055 1-197): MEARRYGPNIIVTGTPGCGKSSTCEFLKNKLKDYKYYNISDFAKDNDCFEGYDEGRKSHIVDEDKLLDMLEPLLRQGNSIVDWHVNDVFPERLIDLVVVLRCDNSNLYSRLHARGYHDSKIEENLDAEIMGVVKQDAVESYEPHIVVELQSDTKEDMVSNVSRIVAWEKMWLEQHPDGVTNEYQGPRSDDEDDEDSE

aFap7–aRps14 complex [2] = target: T2, aFap7–aRps14 complex (Pyrococcus abyssi, UniProt Q9UZK4); assay: X-ray crystal structure, […] Å; settings: Mg2+; ATP binding pocket of aFap7; pH 8.5, 18 °C
T2 construct: gene PYRAB11420; co-expressed from polycistronic pET21, N-terminal 6xHis on Fap7, E. coli Rosetta 2DE3; 1:1 complex, calculated mass 36,272; with Small ribosomal subunit protein uS11 (30S ribosomal protein S11)

yFap7 [3] = target: T1, yFap7; assay: native gel electrophoresis with radiolabelled ATP; type: binding; settings: 30 µM yFap7, 0.1 mM [γ-32P]ATP, AMP-PNP 0.1 or 1 mM
yFap7–yRps14 complex = target: T3, yFap7–yRps14 complex (Saccharomyces cerevisiae, UniProt Q12055); assay: adenylate kinase assay coupled to pyruvate kinase / lactate dehydrogenase, NADH at […] nm; type: biochemical; settings: 0.3 mM AMP, 5 mM MgCl2, pH 7.5, 30 °C; preformed complex
T3 construct: gene FAP7; co-expressed from polycistronic pET21, N-terminal 6xHis on Fap7, E. coli Rosetta 2DE3; 1:1 complex, calculated mass 38,447; with Small ribosomal subunit protein uS11 (40S ribosomal protein S14)

aFap7–aRps14 complex [4] = target: T2, aFap7–aRps14 complex; assay: X-ray crystal structure, […] Å; settings: Mg2+; ATP binding pocket of aFap7; pH 8.5, 18 °C; two of four aFap7 copies hold ATP, two ADP
MBP-yRps14 [5] = target: T4, MBP-yRps14 (Saccharomyces cerevisiae, UniProt P06367 1-137); assay: filter binding; 300 mM KCl, 5 mM Mg2+, HEPES pH 8.0; Filter binding: 30 mM Tris-HCl pH 8.0, 150 mM KCl, 6 mM MgCl2, 60 ug/ml E. coli tRNA, 20 C, 15 min, 10 fmol RNA (Fig S4D: 20 mM HEPES pH 8.0, 300 mM KCl, 5 mM MgCl2, 20 C); pull-down: IP buffer (300 mM KCl, 50 mM Hepes pH 7.5, 0.5 mM EDTA, 1 mM DTT, 10% glycerol as given for bead preparation), 5 mM MgCl2 where stated; settings: protein: recombinant; tags: MBP (pETM41; His-tag purification); (radioactively labeled); hairpin
yFap7 [6] = target: T5, yFap7 (Saccharomyces cerevisiae, UniProt Q12055 1-197); assay: filter binding; up to 3.6 uM protein; 6 mM Mg2+, 150 mM KCl; Filter binding: 30 mM Tris-HCl pH 8.0, 150 mM KCl, 6 mM MgCl2, 60 ug/ml E. coli tRNA, 20 C, 15 min, 10 fmol RNA (Fig S4D: 20 mM HEPES pH 8.0, 300 mM KCl, 5 mM MgCl2, 20 C); pull-down: IP buffer (300 mM KCl, 50 mM Hepes pH 7.5, 0.5 mM EDTA, 1 mM DTT, 10% glycerol as given for bead preparation), 5 mM MgCl2 where stated; settings: protein: recombinant; tags: His; (radioactively labeled); hairpin
T5 sequence: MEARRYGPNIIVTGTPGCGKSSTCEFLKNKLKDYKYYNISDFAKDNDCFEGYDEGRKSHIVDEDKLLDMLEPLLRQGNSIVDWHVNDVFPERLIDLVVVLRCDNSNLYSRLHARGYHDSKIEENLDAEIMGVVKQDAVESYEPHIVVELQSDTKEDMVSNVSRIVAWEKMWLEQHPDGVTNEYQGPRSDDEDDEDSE

MBP-yRps14 [7] = target: T4, MBP-yRps14; assay: filter binding; 6 mM Mg2+, 150 mM KCl, E. coli tRNA 60 ug/ml; Filter binding: 30 mM Tris-HCl pH 8.0, 150 mM KCl, 6 mM MgCl2, 60 ug/ml E. coli tRNA, 20 C, 15 min, 10 fmol RNA (Fig S4D: 20 mM HEPES pH 8.0, 300 mM KCl, 5 mM MgCl2, 20 C); pull-down: IP buffer (300 mM KCl, 50 mM Hepes pH 7.5, 0.5 mM EDTA, 1 mM DTT, 10% glycerol as given for bead preparation), 5 mM MgCl2 where stated; settings: protein: recombinant; tags: MBP (pETM41; His-tag purification); (radioactively labeled); hairpin
purified protein = substrate: Nc1ncnc2c1ncn2[C@@H]1O[C@H](COP(=O)(O)OP(=O)(O)OP(=O)(O)O)[C@@H](O)[C@H]1O; assay: purified protein; type: biochemical, Saccharomyces cerevisiae; settings: 0.3 mM AMP, 5 mM MgCl2, 60 mM KCl, 100 mM Tris-HCl pH 7.5, 30 °C, ATP 0.01–1 mM

Molecule: Nc1ncnc2c1ncn2[C@@H]1O[C@H](COP(=O)(O)O)[C@@H](O)[C@H]1O [AMP]
- adenylate kinase assay coupled to pyruvate kinase / lactate dehydrogenase, NADH (yFap7 [1]): the AK activity of yFap7 with respect to AMP

Molecule: Nc1ncnc2c1ncn2[C@@H]1O[C@H](COP(=O)(O)OP(=O)(O)O)[C@@H](O)[C@H]1O [ADP]
- X-ray crystal structure, 2.12 Å (aFap7–aRps14 complex [2]): 4cwn and 4cw7 for the ADP- and ATP-bound structures

Molecule: Nc1ncnc2c1ncn2[C@@H]1O[C@H](COP(=O)(O)OP(=O)(O)NP(=O)(O)O)[C@@H](O)[C@H]1O [AMPPNP]
- native gel electrophoresis with radiolabelled ATP (yFap7 [3]): Fap7 binds AMPPNP and ATP−Mg with the same (AMPPNP) or a slightly lower

Molecule: Nc1ncnc2c1ncn2[C@@H]1O[C@H](COP(=O)(O)OP(=O)(O)OP(=O)(O)O)[C@@H](O)[C@H]1O [ATP]
- adenylate kinase assay coupled to pyruvate kinase / lactate dehydrogenase, NADH (yFap7–yRps14 complex): yFap7–yRps14 complex showed almost complete inhibition of the Fap7 AK activity
- X-ray crystal structure, 2.45 Å (aFap7–aRps14 complex [4]): In the ATP-bound crystal form, two copies of aFap7 are bound by ATP

B1: Helix 23 of 18S rRNA (H23) (structured_RNA)
RNA: GGGAGUAUUCAAUUGUCAGAGGUGAAAUUCUUGGAUUUAUUGAAGAGU
- Kd (MBP-yRps14 [5]): 34.9 ± 0.95 µM
- binding result (yFap7 [6]): no binding
- Kd (MBP-yRps14 [7]): 1.5 ± 0.15 µM

B2: yFap7 (Saccharomyces cerevisiae S288C) (protein)
chain: MEARRYGPNIIVTGTPGCGKSSTCEFLKNKLKDYKYYNISDFAKDNDCFEGYDEGRKSHIVDEDKLLDMLEPLLRQGNSIVDWHVNDVFPERLIDLVVVLRCDNSNLYSRLHARGYHDSKIEENLDAEIMGVVKQDAVESYEPHIVVELQSDTKEDMVSNVSRIVAWEKMWLEQHPDGVTNEYQGPRSDDEDDEDSE
notes: full-length, His-tagged, pRSF-DUET, expressed in E. coli Rosetta 2DE3; calculated monomer mass 23,916 (SAXS sample)
- Km (purified protein): 52 µM
- kcat (purified protein): 0.00612 s⁻¹
